According to patent US20250127863A1, “ANTIMICROBIAL PEPTIDE FOR ONYCHOMYCOSIS” (CBMR SCIENTIFIC NANOSCIENCE B.V., priority 2019, published 2025):
No end group written: not given here.

Legend:
[1] = tested on: C. kefyr; test: MIC90 growth inhibition; type: cell-based, Candida kefyr; settings: RPMI 1640 one-fourth strength
Method: (§1) The minimum inhibitory concentration (MIC) value is defined as the lowest sample concentration that inhibited growth. In the Examples, the MIC90 value is presented, which MIC90 values are determined according to established methods known to the person with the skills in the relevant art. Experiments; 1×10E5 CFU of various strains/ml were incubated for 24-48 h at 37° C. in 4× diluted medium of RPMI 1640 with the indicated concentrations of antimicrobial peptide hLF(1-11) [SEQ ID NO: 3]. As controls various strains cells were incubated for 24-48 h at 37° C. with no agent (antimicrobial peptide), and subsequently, growth of the microbial organism (e.g. yeast, bacterium) was monitored by using spectrophotometry with a spectrophotometer at 620 nm. […] ND=Not done. Representative single assay data are listed rather than a range, for clarity reasons and for ease of comparison of peptide efficacy. The MIC was calculated as the lowest antibiotic (antimicrobial peptide) concentration at which growth of the assessed yeast or bacterium (microbe) was inhibited (inhibitory concentration IC90).

[2] = tested on: C. metapsilosis; test: MIC90 growth inhibition; type: cell-based, Candida metapsilosis; settings: RPMI 1640 one-fourth strength
Method: as §1

[3] = tested on: Sclerotinia sclerotiorum; test: IC50 growth inhibition; type: cell-based
[4] = tested on: Sclerotium rolfsii; test: IC50 growth inhibition; type: cell-based
[5] = tested on: S. epidermidis Type 2163; test: MIC90 growth inhibition; type: cell-based, Staphylococcus epidermidis; settings: RPMI 1640 one-fourth strength
Method: as §1

[6] = tested on: onychomycosis; test: Clinical study for treating onychomycosis (Example 2); type: in vivo, human; settings: twice per day
Method: A peptide solution was tested for its treatment effect on onychomycosis in human subjects. The peptide was antimicrobial peptide hLF1-11 (GRRRRSVQWCA) [SEQ ID NO: 3] in water comprising 0.01% by volume acetic acid, based on the total volume of the peptide solution.
Forty two patients are treated with the peptide solution; 20 patients (4 male/16 female) were treated with a solution comprising a low concentration of 3 mg/L of the peptide (dose twice per day), 10 patients (3 male/7 female) were treated with the peptide solution with a high concentration of 30 mg/L of the peptide (dose twice per day) and 12 patients (8 male/4 female) with a combination of high and low concentration (4 weeks 30 mg/L following by 3 mg/L continuing treatment, dose twice per day).
Patients were categorized into groups based on their skin and nail disorders (visible inspection by independent pedicure); low to mild fungal nail problems (treatment group with 3 mg/L for patients in this group), mild to severe fungal nail problems (combination group 30 mg/L-3 mg/L) and highly infected onychomycosis (30 mg/L group).
Results: 90% of the patients observed an improvement in the appearance of the nail after 2 weeks, 92% observed improvement after 4-10 weeks of treatment. Complete recovery was visible for >98% of the patients after 24 weeks. No exclusions were made. Some patients with severe infections (diabetic/autoimmune related) in the high/low combination treatment group were treated longer with the peptide at high dose. All patients continued the treatment as long as it takes to recover completely from the fungal nail infection (in general, relating to the outgrowth of a complete new nail). Duration of the trial was 6-12 months (depending on the infection and the outgrowth of the nail).

[7] = tested on: C. krusei CMC-2002; test: MIC90 growth inhibition; type: cell-based, Candida krusei; settings: RPMI 1640 one-fourth strength
Method: as §1

[8] = tested on: C. krusei (LUMC); test: MIC90 growth inhibition; type: cell-based, Candida krusei; settings: RPMI 1640 one-fourth strength
Method: as §1

[9] = tested on: C. krusei spp; test: MIC90 growth inhibition; type: cell-based, Candida krusei; settings: RPMI 1640 one-fourth strength
Method: as §1

[10] = tested on: Phoma exigua; test: IC50 growth inhibition; type: cell-based
[11] = tested on: C. albicans (WT); test: MIC90 growth inhibition; type: cell-based, Candida albicans; settings: RPMI 1640 one-fourth strength
Method: as §1

[12] = tested on: C. albicans ATCC 10231; test: MIC90 growth inhibition; type: cell-based, Candida albicans; settings: RPMI 1640 one-fourth strength
Method: as §1

[13] = tested on: C. albicans CBS-562; test: MIC90 growth inhibition; type: cell-based, Candida albicans; settings: RPMI 1640 one-fourth strength
Method: as §1

[14] = tested on: C. albicans CMC-1968; test: MIC90 growth inhibition; type: cell-based, Candida albicans; settings: RPMI 1640 one-fourth strength
Method: as §1

[15] = tested on: C. albicans AA (LUMC); test: MIC90 growth inhibition; type: cell-based, Candida albicans; settings: RPMI 1640 one-fourth strength
Method: as §1

[16] = tested on: C. guilliermondii CBS-2030; test: MIC90 growth inhibition; type: cell-based, Candida guilliermondii; settings: RPMI 1640 one-fourth strength
Method: as §1

[17] = tested on: C. guilliermondii; test: MIC90 growth inhibition; type: cell-based, Candida guilliermondii; settings: RPMI 1640 one-fourth strength
Method: as §1

[18] = tested on: C. auris; test: MIC90 growth inhibition; type: cell-based, Candida auris; settings: RPMI 1640 one-fourth strength
Method: as §1

[19] = tested on: Botrytis cinerea; test: MIC90 growth inhibition; type: cell-based; settings: RPMI 1640 one-fourth strength
Method: as §1

[20] = tested on: Trichophyton spp; test: MIC90 growth inhibition; type: cell-based; settings: Trichophyton spp (Table 1); RPMI 1640 one-fourth strength
Method: as §1

[21] = tested on: Malassezia furfur CBS 1878; test: MIC90 growth inhibition; type: cell-based; settings: RPMI 1640 one-fourth strength
Method: as §1

[22] = tested on: Cladosporium spp; test: MIC90 growth inhibition; type: cell-based; settings: RPMI 1640 one-fourth strength
Method: as §1

[23] = tested on: Enterococcus faecalis; test: MIC90 growth inhibition; type: cell-based; settings: RPMI 1640 one-fourth strength
Method: as §1

[24] = tested on: Aspergillus sydowii; test: MIC90 growth inhibition; type: cell-based; settings: RPMI 1640 one-fourth strength
Method: as §1

[25] = tested on: Cryptococcus neoformans; test: MIC90 growth inhibition; type: cell-based; settings: RPMI 1640 one-fourth strength
Method: as §1

[26] = tested on: Aspergillus tamarii; test: MIC90 growth inhibition; type: cell-based; settings: RPMI 1640 one-fourth strength
Method: as §1

[27] = tested on: Entrobacter cloacae; test: MIC90 growth inhibition; type: cell-based; settings: RPMI 1640 one-fourth strength
Method: as §1

[28] = tested on: Helicobacter pylori; test: MIC90 growth inhibition; type: cell-based; settings: RPMI 1640 one-fourth strength
Method: as §1

[29] = tested on: Penicillium digitatum; test: MIC90 growth inhibition; type: cell-based; settings: RPMI 1640 one-fourth strength
Method: as §1

[30] = tested on: Crypt. neoform. ▴ SKN7 (UMC); test: MIC90 growth inhibition; type: cell-based, Cryptococcus neoformans; settings: genetically modified type species, RPMI 1640 one-fourth strength
Method: as §1

## GRRRRSVQWCA [hLF1-11, Gly Arg Arg Arg Arg Ser Val Gln Trp Cys Ala]
[1]
  Inhibitory concentration MIC (MIC90): MIC = 2.5-12.5 μg/ml
[2]
  Inhibitory concentration MIC (MIC90): MIC = 25 μg/mL
[3]
  Inhibitory concentration IC50: IC50 = 31 μg/mL
[4]
  Inhibitory concentration IC50: IC50 = 231 μg/mL
[5]
  Inhibitory concentration MIC (MIC90): MIC = 3.1 μg/ml
[6]; after 2 weeks, 3 mg/L, 30 mg/L or combination, 42 patients
  patients who observed an improvement in the appearance of the nail: 90%
[6]; after 4-10 weeks of treatment
  patients who observed improvement: 92%
[6]; after 24 weeks
  patients with complete recovery visible: > 98%
[7]
  Inhibitory concentration MIC (MIC90): MIC = 25 μg/mL
[8]
  Inhibitory concentration MIC (MIC90): MIC = 25 μg/mL
[9]
  Inhibitory concentration MIC (MIC90): MIC = 10-25 μg/ml
[10]
  Inhibitory concentration IC50: IC50 = 821 μg/mL
[11]
  Inhibitory concentration MIC (MIC90): MIC = 25 μg/ml
[12]
  Inhibitory concentration MIC (MIC90): MIC = 25 μg/mL
[13]
  Inhibitory concentration MIC (MIC90): MIC = 25 μg/mL
[14]
  Inhibitory concentration MIC (MIC90): MIC = 25 μg/mL
[15]
  Inhibitory concentration MIC (MIC90): MIC = 25 μg/mL
[16]
  Inhibitory concentration MIC (MIC90): MIC = 50 μg/ml
[17]
  Inhibitory concentration MIC (MIC90): MIC = 5-40 μg/ml
[18]
  Inhibitory concentration MIC (MIC90): MIC = 12.5-25 μg/ml
[19]
  Inhibitory concentration MIC (MIC90): MIC = 16 μM
[20]
  Inhibitory concentration MIC (MIC90): MIC = 6.3-45 μg/ml
[21]
  Inhibitory concentration MIC (MIC90): MIC = 12.5-50 μg/mL
[22]
  Inhibitory concentration MIC (MIC90): MIC = 3.1-12.5 μg/ml
[23]
  Inhibitory concentration MIC (MIC90): MIC = 6.3 μg/ml
[24]
  Inhibitory concentration MIC (MIC90): MIC = 2.5-12.5 μg/ml
[25]
  Inhibitory concentration MIC (MIC90): MIC = 12.5-50 μg/mL
[26]
  Inhibitory concentration MIC (MIC90): MIC = 2.5-12.5 μg/ml
[27]
  Inhibitory concentration MIC (MIC90): MIC = 6.3 μg/ml
[28]
  Inhibitory concentration MIC (MIC90): MIC = 12.5-50 μg/ml
[29]
  Inhibitory concentration MIC (MIC90): MIC = 8 μM
[30]
  Inhibitory concentration MIC (MIC90): MIC = 6.3 μg/ml
